# Results: patent publication US6042841A, “Cosmetic method of treating skin” (Unilever Home & Personal Care USA Division of Conopco, Inc., priority 1998, dated 2000)
# Assays:
# Type in all cases: cell-based
# procollagen-I = assay: Dot blot assay for procollagen-I synthesis in human dermal fibroblasts
# Protocol: Primary human foreskin fibroblasts at passage 2 (P2) were seeded into 12-well plates at 10000 cells/cm^2 and maintained for 24 hours in an atmosphere of 5% carbon dioxide and 4% oxygen in Dulbeccos Modified Eagles Medium (DMEM) supplemented with 10% foetal calf serum. After this time the cells were washed with serum free DMEM and then incubated in fresh serum free DMEM for a further 60 hours. The fibroblast monolayers were then washed again with serum free DMEM. Test reagents and vehicle controls were added to the cells in triplicate in a final volume of 0.4 ml/well fresh serum free DMEM and incubated for a further 24 hours. This fibroblast conditioned medium was either analysed immediately or snap frozen in liquid nitrogen and stored at -70° C. for future analysis. The cells were then counted and data from the dot-blot analysis subsequently standardised to cell number.
# Samples of conditioned medium from dermal fibroblasts treated with vehicle (as a control) or test reagents were supplemented with 20 mM dithiothreitol (1:10 dilution of 200 mM stock solution) and 0.1% sodium dodecylsulphate (1:100 dilution of 10% stock solution), mixed well and then incubated at 75° C. for 2 minutes. […]
# In order to normalise the results the effects of the test substance was determined relative to a vehicle treated control value of 100 arbitrary units. […]
# PGE2 = assay: Prostaglandin E2 assay, PMA-induced PGE2 production in human skin fibroblasts; settings: for PGE2: N 4, p < 0.001 vs PMA-treated
# Protocol: Intracellular adhesion molecules (ICAM) and PEG2 production by human skin fibroblasts can be induced by the inflammatory stimulus PMA (phorbal myristate acetate). PMA represents an external stressor which induces oxidative stress and inflammatory responses in cells. This model is used to model inflammation in vivo.
# Primary human foreskin fibroblasts at passage 2 (P2) were seeded into 96-well plates at 10000 cells/well and maintained for 24 hours in an atmosphere of 5% carbon dioxide in Dulbeccos Modified Eagles Medium (DMEM) supplemented with 10% foetal calf serum. […] Phorbal myristate acetate (PMA) (Sigma) was added to the media and the cells incubated for a further 24 hours. […] The fibroblasts/media were then analysed as described below immediately or snap frozen in liquid nitrogen and stored at -70° C. for future analysis. The cells were then counted and data from the dot-blot analysis subsequently standardised to cell number.
# Prostaglandin E2 (PGE2) assay: Volumes of 50 μl culture medium were taken for PGE2 assay after gently shaking the culture plate. PGE2 levels in the medium were determined with a Biotrak PGE2 immunoassay kit (Amersham, UK). The assay is based on the competition between unlabelled PGE2 in the sample and a fixed quantity of horseradish peroxidase labelled PGE2 for a limited amount of fixed PGE2 specific antibody. Concentrations of unlabelled sample PGE2 are determined according to a standard curve which was obtained at the same time.
# keratinocytes = assay: Keratinocyte viability by neutral red up-take in PGE2 assay; settings: at the concentrations tested
# Protocol: After incubating for 24 hours the medium was removed and the viability determined by the Neutral Red method.
# The cells were then tested for viability by the neutral red up-take method described in example 2 above.
# [1] = tested on: B16-F1 mouse melanoma cells; assay: Pigmentation assay (melanin in media)
# Protocol: B16-F1 mouse melanoma cells (American Type Culture Collection, Maryland, USA) were maintained in 75 cm^2 culture flasks in RPMI 1640 medium (ICN-Flow, cat. no. 12-60-54) supplemented with L-glutamine (4 mM) and 10% foetal bovine serum (FBS) at 37° C. in a water saturated, 5% CO2 in air atmosphere. Cells were passaged twice weekly.
# Subconfluent B16 cells were seeded in 96 well microtiter plates at a density of 5000 cells/well and cultured overnight in DMEM (Life Technologies, NY) containing 10% foetal bovine serum and 1% penicillin/streptomycin without phenol red at 37° C. under 5% CO2. After 24 hours, the media was replaced with fresh media containing the test materials or vehicle controls. Cells were incubated for 72 hours at which time melanin was visible in the control wells. Next, the melanin containing media from each well was transferred to a clean 96 well plate and quantified by reading the absorbance at 530 nm using a microplate spectrophotometer (Dynatech MR5000) and correcting for the baseline absorption of fresh medium. As the corrected absorption is proportional to the melanin concentration the percentage pigmentation for a skin lightening test substance can be calculated as: […]
# where OD530 test and OD530 ref indicate the average corrected absorption of the medium from the wells with the test substance and that of the medium from the wells without the test substance. The percentage inhibition caused by the test substance is then 100 - % pigmentation.
smiles,measurement,setting,value
"CCCCCCCCCCC/C=C\CCCCC(=O)O [Petroselinic Acid, petroselinic acid]",activity at 10 µM,"procollagen-I; Homo sapiens, Fibroblast, 10 μM, 24 hours, n = 3, read-out: Procollagen-I synthesis relative to vehicle treated control value of 100",118 ± 8.6%
same,procollagen-I synthesis (in words),procollagen-I; compared to the control,significantly upregulates
same,PGE2,PGE2; PMA + PA (0.1 uM),500 ± 127 pg/mL
same,PGE2,PGE2; PMA + PA (1 uM),486 ± 93 pg/mL
same,PGE2,PGE2; PMA + PA (10 uM),233 ± 139 pg/mL
same,PGE2,PGE2; PMA + PA (100 uM),117 ± 39 pg/mL
same,inflammatory response as measured by PGE2 production (in words),"PGE2; PMA-challenged, even at 0.1 μm (so in the source)",dramatically reduces the inflammatory response
same,Cell viability of keratinocytes (in words),keratinocytes,not found to be adversely effected
same,melanin production (in words),[1],inhibits melanin production
same,activity at 0.01 %,"[1]; Mus musculus, B16-F1, 0.01%, 72 hours, n = 4, ** (0.000)",79.5%
same,activity at 0.013 %,"[1]; Mus musculus, B16-F1, 0.013%, 72 hours, n = 4, ** (0.000)",40.4%
same,activity at 0.02 %,"[1]; Mus musculus, B16-F1, 0.02%, 72 hours, n = 4, ** (0.000)",55.3%
same,activity at 0.04 %,"[1]; Mus musculus, B16-F1, 0.04%, 72 hours, n = 4, ** (0.000)",3.9%
same,activity at 0.1 %,"[1]; Mus musculus, B16-F1, 0.1%, 72 hours, n = 4, ** (0.000)",19.3%
